Molecules are shown by their SMILES.

The text below walks through data of patent US5444049A, “Peptide compounds derived from boronic acid” (Adir et Compagnie, priority 1993, dated 1995).

In data set [1] the test system is OFA rats. The experiment in a line: Anticoagulant activity ex vivo, intravenous administration, activated cephalin time. In kind it is in vivo, rat. Particulars: 0.5 mg/kg i.v., 15.5 min.
For data set [2], the target named is T1, purified human activated protein C (Homo sapiens, UniProt P04070).
T1 construct: purchased Stago
Put plainly: Inhibition of activated protein C. The class given is biochemical. The conditions noted are these: substrate S 2366. The method, then:
(§1) To evaluate in vitro the selectivity of these products with respect to different serine proteases of fibrinolysis and of coagulation, the same protocol was applied to purified human plasmin (2 nM, Stago), to purified human activated protein C (2 nM, Stago), to purified human activated factor X (2 nM, Stago), to tissue plasminogen activator (2 nM, Calbiochem), to purified human urokinase (2 nM, Sigma) and to purified human plasma kallikrein (2 nM, Calbiochem), using different peptidyl para-nitroanilides as substrate: <Glu-Phe-Lys-pNA (0.50 mM, S 2403, Kabi) for plasmin, N-Cbo-Arg-Gly-Arg-pNA (0.38 mM, S 2765, Kabi) for factor Xa, <Glu-Pro-Arg-pNa (0.52 mM, S 2366, Kabi) for activated protein C, H-D-Pro-Phe-Arg-pNa (0.45 mM, S 2302, Kabi) for kallikrein, H-D-Ile-Pro-Arg-pNA (0.48 mM, S 2288, Kabi), <Glu-Gly-Arg-pNA (0.56 mM, S 2444, Kabi).
(§2) Inhibitors, enzymes and substrates are diluted in the same buffer ([…] buffer, pH 7.4, containing 0.12M sodium chloride and 0.05% of bovine serum albumin), and then distributed in a polystyrene microplate in a volume of […].
(§3) The fibrin formed by thrombin or by the para-nitroaniline liberated by the action of the serine protease is measured spectrophotometrically at 405 nm after 15 to 30 minutes of reaction at 20° C.

In a further data set the target is T2, purified human plasmin (Homo sapiens, UniProt P00747).
T2 construct: purified human plasmin (2 nM, Stago); purchased Stago
The experiment in a line: Inhibition of plasmin. The conditions noted are these: substrate S 2403. The class given is biochemical. As to the method:
as §1, §2, §3

Data set [3] relates to thrombin time of human platelet-poor plasma. Put plainly: Anticoagulant activity: thrombin time in human plasma. The class given is biochemical. The conditions noted are these: human plasma, 2 minutes at 37° C. As to the method:
(§4) In the presence of a standard quantity of thrombin, a normal plasma coagulates in a defined and constant time, termed the thrombin time (TT). Any prolongation of this time reflects an abnormality of fibrin formation (coagulation).
(§5) Sprague-Dawley rats are anesthetized with pentobarbital sodium (60 mg/kg i.p.), the carotid artery is catheterized and blood samples are taken into trisodium citrate solution (0.109M). A platelet-poor plasma is obtained by centrifugation of the blood samples (3000 g, 15 minutes). Samples of venous blood are also taken from humans at the bend of the arm. Anticoagulation of the samples and preparation of platelet-poor plasma are identical to those carried out with rat blood.
(§6) The thrombin time is obtained with Prest thrombin reagent and determined automatically using a coagulometer.
(§7) The antagonist or the solvent (10 μl) is added to the plasma (90 μl) and then incubated for 2 minutes at 37° C. 100 µl of thrombin are added as the chronometer is started.
(§8) Under these conditions, the TT values obtained in the control plasma are of the order of 30 seconds in rats and 20 seconds in humans. The activity of an antagonist is evaluated by its capacity to prolong this thrombin time relative to the control.
(§9) Under these conditions, the compounds of the invention permit a prolongation of the thrombin time of 50-fold and more. The effect of the inhibitors is measured, and the concentration which multiplies the thrombin time by 2 (CTT2) is determined.

A further data set deals with T3, purified human urokinase (Homo sapiens, UniProt P00749).
T3 construct: purchased Sigma
The experiment in a line: Inhibition of urokinase. The conditions noted are these: peptidyl para-nitroanilide substrate. The class given is biochemical. The method, then:
as §1, §2, §3

Data set [4] relates to thrombin time of rat platelet-poor plasma. The experiment in a line: Anticoagulant activity: thrombin time in rat plasma. The class given is biochemical. Particulars: rat plasma, 2 minutes at 37° C. The method, then: as §4, §5, §6, §7, §8, §9
For data set [5], the target named is T4, tissue plasminogen activator (Homo sapiens, UniProt P00750).
T4 construct: purchased Calbiochem
The experiment in a line: Inhibition of tissue plasminogen activator. The class given is biochemical. The conditions noted are these: peptidyl para-nitroanilide substrate. As to the method:
as §1, §2, §3

Data set [6] has as its system dogs. Put plainly: Thrombopenia p.o. in dogs, platelet count. In kind it is in vivo, dog. Particulars: 2.5 mg/kg orally. The method, then: (§10) The products were administered orally to dogs.2 hours and 4 hours after the treatment, and blood was withdrawn via the intravenous route. The plasma is prepared, platelets counted and the thrombin time test is carried out.
Data set [7] addresses T5, purified human plasma kallikrein (Homo sapiens, UniProt P03952).
T5 construct: to purified human plasma kallikrein (2 nM, Calbiochem); purchased Calbiochem
Put plainly: Inhibition of plasma kallikrein. The class given is biochemical. The conditions noted are these: substrate S 2302; read-out: IC50 Kalli. As to the method:
as §1, §2, §3

Data set [8] has as its system dogs. Put plainly: Anticoagulant activity p.o. in dogs, thrombin time. In kind it is in vivo, dog. Particulars: 2.5 mg/kg orally. The method, then:
as §10

In data set [9] the test system is OFA rats. The experiment in a line: Anticoagulant activity ex vivo, oral administration (conscious rats), thrombin time. The class given is in vivo, rat. Particulars: 10 mg/kg orally. As to the method:
Fasted OFA rats are anesthetized with ether. The cordal artery is exposed and catheterized. The catheter is flushed with citrated (1/40) physiological solution. After installation of the catheter, the animal is placed in a restraining cage and 1.5 cm^3 of arterial blood are withdrawn into 0.109M citrate (1/9).
1 hour after the animal has awoken, the test products are administered orally at a single dose of 10 mg/kg.
Arterial blood samples (1.5 ml) are then withdrawn at 30 minutes, 60 minutes and 2 hours.
As each sample is withdrawn, 1.5 ml of physio-logical solution are reinjected into the animals.
The blood tubes are centrifuged for 15 minutes at 3000 g for preparation of the plasma. The time of onset of the coagulation phenomenon is measured after adding Prest thrombin.
The results are reproduced in the following table, and show the factors by which the thrombin time is increased.

In data set [10] the target is T6, purified human activated factor X (Homo sapiens, UniProt P00742).
T6 construct: purchased Stago
The experiment in a line: Inhibition of activated factor X. The class given is biochemical. The conditions noted are these: substrate S 2765. As to the method:
as §1, §2, §3

Data set [11] deals with OFA rats. Put plainly: Anticoagulant activity ex vivo, intravenous administration, activated cephalin time. In kind it is in vivo, rat. The conditions noted are these: 0.5 mg/kg i.v. As to the method: OFA rats, fasted or otherwise, are anesthetized with pentobarbital (60 mg/kg i.p.). The carotid artery and the jugular vein are exposed and catheterized. The catheters are flushed with citrated (1/40) physiological solution. After installation of the catheters, a sample of 1.5 cm^3 of arterial blood is withdrawn into 0.109M citrate (1/9).
30 minutes later, the test product is administered i.v. in a volume of 1 ml.
Arterial blood samples (1.5 ml) are then withdrawn at 1 minute 30 sec and 5, 15, 30 and 60 minutes.
As each sample is withdrawn, 1.5 ml of citrated physiological solution are reinjected into the animal via the carotid.
The blood tubes are centrifuged for 15 minutes at 3000 g (preparation of plasma). 100 μl of plasma are incubated with 100 gl of activated cephalin. The time of onset of the coagulation phenomenon is measured after adding 100 μl of calcium.
The compounds of the invention, tested at a dose of 0.5 mg/kg, increase the activated cephalin time (ACT) in a dose-dependent manner. […] The increase in ACT noted with the compounds of the invention is still significant 60 minutes after their administration. The results are reproduced in the following table, and show the factors by which the coagulation time is increased.

T5 sequence (P03952 391-638 limits assumed): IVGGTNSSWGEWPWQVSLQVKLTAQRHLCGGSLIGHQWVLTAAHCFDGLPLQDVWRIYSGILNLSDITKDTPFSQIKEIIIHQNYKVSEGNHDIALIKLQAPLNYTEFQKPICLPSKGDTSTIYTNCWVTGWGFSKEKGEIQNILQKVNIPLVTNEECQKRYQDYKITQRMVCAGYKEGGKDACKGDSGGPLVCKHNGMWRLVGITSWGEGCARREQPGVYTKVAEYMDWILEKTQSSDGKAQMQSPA
T5 sequence (P03952 20-390 limits assumed): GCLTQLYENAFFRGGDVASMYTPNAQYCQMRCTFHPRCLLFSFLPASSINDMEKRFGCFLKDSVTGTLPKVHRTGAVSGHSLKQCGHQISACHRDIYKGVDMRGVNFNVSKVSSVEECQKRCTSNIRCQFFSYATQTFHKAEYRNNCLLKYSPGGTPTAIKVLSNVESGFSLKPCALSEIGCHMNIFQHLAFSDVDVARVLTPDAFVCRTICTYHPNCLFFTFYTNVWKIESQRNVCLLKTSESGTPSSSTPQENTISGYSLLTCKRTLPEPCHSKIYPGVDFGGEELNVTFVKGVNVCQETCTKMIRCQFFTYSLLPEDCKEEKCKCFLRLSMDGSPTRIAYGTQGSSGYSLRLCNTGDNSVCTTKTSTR
T2 sequence (P00747 581-810 limits assumed): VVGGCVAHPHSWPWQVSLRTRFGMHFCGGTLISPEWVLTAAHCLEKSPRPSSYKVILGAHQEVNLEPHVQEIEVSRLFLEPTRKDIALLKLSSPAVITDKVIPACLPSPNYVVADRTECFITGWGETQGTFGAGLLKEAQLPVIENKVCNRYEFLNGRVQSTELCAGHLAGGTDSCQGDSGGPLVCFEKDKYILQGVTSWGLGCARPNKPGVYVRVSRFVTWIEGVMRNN
T2 sequence (P00747 97-580 limits assumed): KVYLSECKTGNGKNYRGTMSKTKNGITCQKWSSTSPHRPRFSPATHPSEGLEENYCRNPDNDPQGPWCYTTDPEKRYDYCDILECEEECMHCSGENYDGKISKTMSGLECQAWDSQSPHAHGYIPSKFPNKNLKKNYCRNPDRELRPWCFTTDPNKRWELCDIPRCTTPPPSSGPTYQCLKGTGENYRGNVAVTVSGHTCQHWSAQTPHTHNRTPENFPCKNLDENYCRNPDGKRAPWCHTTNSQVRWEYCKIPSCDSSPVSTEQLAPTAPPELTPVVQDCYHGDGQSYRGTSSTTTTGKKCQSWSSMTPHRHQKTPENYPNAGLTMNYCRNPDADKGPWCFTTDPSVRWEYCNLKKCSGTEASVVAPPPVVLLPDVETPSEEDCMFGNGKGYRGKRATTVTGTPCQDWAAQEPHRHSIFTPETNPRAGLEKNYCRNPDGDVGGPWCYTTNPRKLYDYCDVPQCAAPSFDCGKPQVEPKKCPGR
T6 sequence (P00742 235-488 limits assumed): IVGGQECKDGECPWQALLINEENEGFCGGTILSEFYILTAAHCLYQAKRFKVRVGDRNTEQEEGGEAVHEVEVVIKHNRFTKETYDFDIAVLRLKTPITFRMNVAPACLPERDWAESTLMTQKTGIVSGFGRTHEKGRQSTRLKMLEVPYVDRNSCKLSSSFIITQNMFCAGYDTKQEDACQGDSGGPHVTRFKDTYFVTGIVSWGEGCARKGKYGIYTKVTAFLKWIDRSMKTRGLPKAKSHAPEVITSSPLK
T6 sequence (P00742 41-179 limits assumed): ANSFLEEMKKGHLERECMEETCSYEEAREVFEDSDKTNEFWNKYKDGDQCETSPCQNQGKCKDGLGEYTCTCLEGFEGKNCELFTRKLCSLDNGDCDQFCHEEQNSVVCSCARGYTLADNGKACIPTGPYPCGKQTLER
T1 sequence (P04070 212-461 limits assumed): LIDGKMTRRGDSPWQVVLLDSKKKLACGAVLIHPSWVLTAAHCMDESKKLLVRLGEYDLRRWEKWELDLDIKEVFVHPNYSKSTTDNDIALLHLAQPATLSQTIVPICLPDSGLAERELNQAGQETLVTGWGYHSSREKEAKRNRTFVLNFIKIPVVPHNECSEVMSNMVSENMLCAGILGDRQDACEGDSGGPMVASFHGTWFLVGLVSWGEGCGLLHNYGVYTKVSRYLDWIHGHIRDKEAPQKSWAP
T1 sequence (P04070 43-197 limits assumed): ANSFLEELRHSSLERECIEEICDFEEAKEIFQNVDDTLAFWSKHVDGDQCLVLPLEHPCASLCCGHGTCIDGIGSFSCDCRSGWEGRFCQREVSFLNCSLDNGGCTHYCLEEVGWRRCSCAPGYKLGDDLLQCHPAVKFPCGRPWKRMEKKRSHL
T4 sequence (P00750 36-562): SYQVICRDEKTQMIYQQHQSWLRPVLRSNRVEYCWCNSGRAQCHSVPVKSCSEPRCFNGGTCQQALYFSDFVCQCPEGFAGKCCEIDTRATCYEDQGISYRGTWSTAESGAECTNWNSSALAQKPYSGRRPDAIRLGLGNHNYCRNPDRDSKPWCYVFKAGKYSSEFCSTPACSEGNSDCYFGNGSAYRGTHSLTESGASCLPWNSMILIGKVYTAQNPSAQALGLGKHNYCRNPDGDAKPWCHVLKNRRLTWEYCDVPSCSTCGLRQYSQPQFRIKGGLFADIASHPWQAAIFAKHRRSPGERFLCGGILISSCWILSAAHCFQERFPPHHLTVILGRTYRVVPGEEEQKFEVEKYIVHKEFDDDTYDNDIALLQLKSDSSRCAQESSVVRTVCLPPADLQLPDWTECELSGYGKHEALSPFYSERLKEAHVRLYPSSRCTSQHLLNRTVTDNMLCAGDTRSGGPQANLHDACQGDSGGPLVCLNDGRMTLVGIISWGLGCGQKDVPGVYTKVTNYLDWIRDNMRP

As to `CC(=O)N[C@H](Cc1ccccc1)C(=O)N1CCC[C@H]1C(=O)N[C@@H](CCCN=C(N)N)B(O)O` [DUP 714, Ac-(D)Phe-Pro-Arg-boronic acid, reference compound], the “factor by which the coagulation time (ACT) is increased” value in the data set on OFA rats [1] amounted to 7.6; in the data set on OFA rats [11] (5 min), 3.4; with OFA rats [11] (15 min) it was 2.0; with OFA rats [11] (30 min), 1.7; in the data set on OFA rats [11] (60 min), 1.4. Moreover, the IC50 is 17 nM in [2]; 28 nM against purified human plasmin; 24 nM against purified human urokinase; 8 nM in [5]; 8 nM in data set [7]; 41 nM in data set [10]. In addition, in data set [3], the “Man CTT2 (concentration which multiplies the thrombin time by 2)” value came out at 0.18 µM. The “Rat CTT2 (concentration which multiplies the thrombin time by 2)” value in data set [4] is 0.32 µM. Also, the “thrombopenia” value with dogs [6] is on record as “marked thrombopenia”. In addition, the “Change in platelet count (% of control)” value is reported as -32% in the data set on dogs [6] (2 hr) and -16% with dogs [6] (4 hr). The “Increase factor TT” value came to 7 with dogs [8] (2 hr) and 2 with dogs [8] (4 hr). Further, the entries for the “factor by which the thrombin time is increased” value in the data set on OFA rats [9] (0.5 hours), in the data set with OFA rats [9] (1 hour) and in the data set with OFA rats [9] (2 hours) were 4.0, 3.7 and 3.9, respectively.
